Here are results for 1 molecule from patent US11173143B2, “Composition for decreasing serum uric acid level” (ASAHI GROUP HOLDINGS, LTD., priority 2017, dated 2021).

The test system of this experiment is serum uric acid. Briefly: Serum uric acid level after 8 weeks of daily intake in subjects with hyperuricemia. The format is in vivo, human. To be noted: for Serum uric acid level, After 8 weeks: daily intake. Here is the method: Tests were conducted with subjects with hyperuricemia having high serum uric acid levels (7.1 mg/dl or higher) after their written informed consents were obtained. […] Their serum uric acid levels were measured before the intake and after 8 weeks of the intake. A sign test was used as the test of significance.

In the case of `NCC(=O)O` [Gly, glycine], the Amount of change by setting is: (Average of the group (n=4)) -0.13 mg/dL; (Subject A) 0.4 mg/dL; (Subject B) 0.0 mg/dL; (Subject C) -0.5 mg/dL; (Subject D) -0.4 mg/dL. The “Serum uric acid level, Before start of intake” value runs as follows: (Average of the group (n=4)) 7.73 mg/dL; (Subject A) 8.9 mg/dL; (Subject B) 7.8 mg/dL; (Subject C) 7.1 mg/dL; (Subject D) 7.1 mg/dL. Also, the “Serum uric acid level, After 8 weeks” value was 7.60 mg/dL (Average of the group (n=4)); 9.3 mg/dL (Subject A); 7.8 mg/dL (Subject B); 6.6 mg/dL (Subject C); 6.7 mg/dL (Subject D). Besides, under “subjects with hyperuricemia”, the “Change of serum uric acid levels after 8 weeks of continuous intake (in words)” value was “slightly decreased after 8 weeks of continuous intake, but the decreases were not significant”.
